Laboratory results from ChEMBL document CHEMBL5154945, “Discovery and Optimization of Pyrrolopyrimidine Derivatives as Selective Disruptors of the Perinucleolar Compartment, a Marker of Tumor Progression toward Metastasis” (J Med Chem, 2022).

System: PC-3M
Experiment: Inhibition of cell migration at human PC-3M cells measured after 5 days by Hoechst 33342 staining based microscopic method
Type: functional
Conditions: 120 h

O=C(Nc1cccnc1)c1cccs1
AC50: 1980 nM
